Measured values: PubChem BioAssay AID256 (DTP/NCI, 2004)
Inconclusive results and toxic doses are left out.

System: CD2F1 mice, L1210 leukemia ip, survival T/C
Assay: NCI In Vivo Anticancer Drug Screen. Data for tumor model L1210 Leukemia (intraperitoneal) in CD2F1 (CDF1) mice
Conditions: endpoint: mean survival time, higher = longer survival
Procedure, shortened: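 Antitumor effect is scored in animals hosting a serially transplanted tumor. Values compare compound-dosed animals against vehicle-only controls as a simple quotient.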

[1] = dose: 25.0 mg/kg/injection, schedule: Q01DX009 (ip), vehicle: saline with Tween-80
[2] = dose: 50.0 mg/kg/injection, schedule: Q01DX009 (ip), vehicle: saline with Tween-80
[3] = dose: 400.0 mg/kg/injection, schedule: Q01DX009 (ip), vehicle: saline with Tween-80
[4] = dose: 25.0 mg/kg/injection, schedule: Q01DX009 (ip), vehicle: saline
[5] = dose: 100.0 mg/kg/injection, schedule: Q01DX009 (ip), vehicle: saline with Tween-80

O=c1[nH]c(=O)n([C@H]2CCCO2)cc1F
T/C (dose: 25.0 mg/kg/injection, schedule: Q01DX005 (ip), vehicle: other): 93 % of control | T/C [1]: 97 % of control | T/C (dose: 25.0 mg/kg/injection, schedule: Q04DX003 (ip), vehicle: saline): 90 % of control | T/C (dose: 50.0 mg/kg/injection, schedule: Q01DX005 (ip), vehicle: other): 93 % of control | T/C [2]: 101 % of control | T/C (dose: 50.0 mg/kg/injection, schedule: Q04DX003 (ip), vehicle: saline): 100 % of control | T/C (dose: 100.0 mg/kg/injection, schedule: Q01DX005 (ip), vehicle: other): 114 % of control | T/C (dose: 100.0 mg/kg/injection, schedule: Q04DX003 (ip), vehicle: saline): 105 % of control | T/C (dose: 112.5 mg/kg/injection, schedule: Q04DX003 (ip), vehicle: saline with Tween-80): 106 % of control | T/C (dose: 112.5 mg/kg/injection, schedule: Q04DX003 (iv), vehicle: saline with Tween-80): 104 % of control | T/C (dose: 225.0 mg/kg/injection, schedule: Q04DX003 (ip), vehicle: saline with Tween-80): 116 % of control | T/C (dose: 225.0 mg/kg/injection, schedule: Q04DX003 (iv), vehicle: saline with Tween-80): 113 % of control | T/C (dose: 400.0 mg/kg/injection, schedule: Q01DX005 (ip), vehicle: other): 95 % of control | T/C [3]: 104 % of control | T/C (dose: 400.0 mg/kg/injection, schedule: Q04DX003 (ip), vehicle: saline): 158 % of control | T/C (dose: 450.0 mg/kg/injection, schedule: Q04DX003 (ip), vehicle: saline with Tween-80): 153 % of control

Nc1nc(N)c2cc(CCc3ccccc3)ccc2n1
T/C (dose: 6.25 mg/kg/injection, schedule: Q01DX009 (ip), vehicle: saline with Tween-80): 105 % of control | T/C (dose: 6.25 mg/kg/injection, schedule: Q04DX003 (ip), vehicle: saline with Tween-80): 98 % of control | T/C (dose: 12.5 mg/kg/injection, schedule: Q01DX009 (ip), vehicle: saline with Tween-80): 100 % of control | T/C (dose: 12.5 mg/kg/injection, schedule: Q04DX003 (ip), vehicle: saline with Tween-80): 98 % of control | T/C [1]: 104 % of control | T/C (dose: 25.0 mg/kg/injection, schedule: Q04DX003 (ip), vehicle: saline with Tween-80): 98 % of control | T/C (dose: 50.0 mg/kg/injection, schedule: Q01DX009 (ip), vehicle: Klucel (hydroxypropylcellulose) (HPC)): 106 % of control

CC(=O)c1ccc(Br)c([N+](=O)[O-])c1
T/C (dose: 100.0 mg/kg/injection, schedule: Q01DX009 (ip), vehicle: Klucel (hydroxypropylcellulose) (HPC)): 102 % of control | T/C (dose: 100.0 mg/kg/injection, schedule: Q04DX003 (ip), vehicle: Klucel (hydroxypropylcellulose) (HPC)): 96 % of control | T/C (dose: 200.0 mg/kg/injection, schedule: Q01DX009 (ip), vehicle: Klucel (hydroxypropylcellulose) (HPC)): 98 % of control | T/C (dose: 200.0 mg/kg/injection, schedule: Q04DX003 (ip), vehicle: Klucel (hydroxypropylcellulose) (HPC)): 100 % of control | T/C (dose: 400.0 mg/kg/injection, schedule: Q01DX009 (ip), vehicle: Klucel (hydroxypropylcellulose) (HPC)): 102 % of control | T/C (dose: 400.0 mg/kg/injection, schedule: Q04DX003 (ip), vehicle: Klucel (hydroxypropylcellulose) (HPC)): 105 % of control

CCOP(=O)(OCC)OC(C)C#N (stereo not drawn)
T/C (dose: 12.5 mg/kg/injection, schedule: Q01DX009 (ip), vehicle: saline): 97 % of control | T/C [4]: 97 % of control

CCCCC#CC(=O)CCCCC
T/C [2]: 97 % of control | T/C [5]: 102 % of control

O=C(O)C1OC(C(=O)O)C(C(=O)O)C1C(=O)O (stereo not drawn)
T/C (dose: 75.0 mg/kg/injection, schedule: Q01DX001 (ip), vehicle: other): 100 % of control | T/C (dose: 150.0 mg/kg/injection, schedule: Q01DX001 (ip), vehicle: other): 100 % of control | T/C (dose: 300.0 mg/kg/injection, schedule: Q01DX001 (ip), vehicle: other): 95 % of control

CC(C)(C)C(=O)C#Cc1ccccc1
T/C [4]: 94 % of control | T/C (dose: 50.0 mg/kg/injection, schedule: Q01DX009 (ip), vehicle: saline): 97 % of control

O=[N+]([O-])c1ccc(S(=O)(=O)C/C=C/CCl)c([N+](=O)[O-])c1
T/C [1]: 102 % of control | T/C [2]: 95 % of control | T/C (dose: 100.0 mg/kg/injection, schedule: Q01DX001 (ip), vehicle: saline with Tween-80): 94 % of control

C[n+]1c(/C=C\C=C\N2CCCCC2)sc2ccccc21
T/C (dose: 0.06 mg/kg/injection, schedule: Q01DX009 (ip), vehicle: Klucel (hydroxypropylcellulose) (HPC)): 104 % of control | T/C (dose: 0.12 mg/kg/injection, schedule: Q01DX009 (ip), vehicle: Klucel (hydroxypropylcellulose) (HPC)): 104 % of control | T/C (dose: 0.25 mg/kg/injection, schedule: Q01DX009 (ip), vehicle: Klucel (hydroxypropylcellulose) (HPC)): 107 % of control | T/C (dose: 0.31 mg/kg/injection, schedule: Q01DX009 (ip), vehicle: Klucel (hydroxypropylcellulose) (HPC)): 113 % of control | T/C (dose: 0.5 mg/kg/injection, schedule: Q01DX009 (ip), vehicle: Klucel (hydroxypropylcellulose) (HPC)): 111 % of control | T/C (dose: 0.63 mg/kg/injection, schedule: Q01DX009 (ip), vehicle: Klucel (hydroxypropylcellulose) (HPC)): 97 % of control | T/C (dose: 1.0 mg/kg/injection, schedule: Q01DX009 (ip), vehicle: Klucel (hydroxypropylcellulose) (HPC)): 107 % of control | T/C (dose: 1.25 mg/kg/injection, schedule: Q01DX009 (ip), vehicle: Klucel (hydroxypropylcellulose) (HPC)): 100 % of control | T/C (dose: 2.0 mg/kg/injection, schedule: Q01DX009 (ip), vehicle: Klucel (hydroxypropylcellulose) (HPC)): 118 % of control | T/C (dose: 62.0 micrograms/kg/injection, schedule: Q01DX009 (ip), vehicle: Klucel (hydroxypropylcellulose) (HPC)): 104 % of control | T/C (dose: 125.0 micrograms/kg/injection, schedule: Q01DX009 (ip), vehicle: Klucel (hydroxypropylcellulose) (HPC)): 102 % of control | T/C (dose: 250.0 micrograms/kg/injection, schedule: Q01DX009 (ip), vehicle: Klucel (hydroxypropylcellulose) (HPC)): 101 % of control | T/C (dose: 500.0 micrograms/kg/injection, schedule: Q01DX009 (ip), vehicle: Klucel (hydroxypropylcellulose) (HPC)): 101 % of control | T/C (dose: 1000.0 micrograms/kg/injection, schedule: Q01DX009 (ip), vehicle: Klucel (hydroxypropylcellulose) (HPC)): 113 % of control | T/C (dose: 2000.0 micrograms/kg/injection, schedule: Q01DX009 (ip), vehicle: Klucel (hydroxypropylcellulose) (HPC)): 108 % of control

CCCCOC(=O)CCCCC(=O)OCCCC
T/C [5]: 96 % of control | T/C (dose: 100.0 mg/kg/injection, schedule: Q04DX003 (ip), vehicle: saline with Tween-80): 97 % of control | T/C (dose: 200.0 mg/kg/injection, schedule: Q01DX009 (ip), vehicle: saline with Tween-80): 105 % of control | T/C (dose: 200.0 mg/kg/injection, schedule: Q04DX003 (ip), vehicle: saline with Tween-80): 98 % of control | T/C [3]: 110 % of control | T/C (dose: 400.0 mg/kg/injection, schedule: Q04DX003 (ip), vehicle: saline with Tween-80): 97 % of control

CC(=O)Oc1ccc(/C=N/NC(N)=S)nc1
T/C (dose: 37.5 mg/kg/injection, schedule: Q01DX009 (ip), vehicle: saline with Tween-80): 160 % of control | T/C (dose: 75.0 mg/kg/injection, schedule: Q01DX009 (ip), vehicle: saline with Tween-80): 152 % of control | T/C (dose: 150.0 mg/kg/injection, schedule: Q01DX009 (ip), vehicle: saline with Tween-80): 165 % of control

O=C(OCCNc1ccc([N+](=O)[O-])cc1[N+](=O)[O-])c1ccccc1
T/C (dose: 100.0 mg/kg/injection, schedule: Q04DX002 (ip), vehicle: other): 101 % of control | T/C (dose: 200.0 mg/kg/injection, schedule: Q04DX002 (ip), vehicle: other): 108 % of control | T/C (dose: 400.0 mg/kg/injection, schedule: Q04DX002 (ip), vehicle: other): 96 % of control

COc1ccc(CCN(C=O)CCc2ccc(OC)c(OC)c2)cc1OC
T/C (dose: 12.5 mg/kg/injection, schedule: Q01DX009 (ip), vehicle: other): 98 % of control | T/C (dose: 25.0 mg/kg/injection, schedule: Q01DX009 (ip), vehicle: other): 101 % of control | T/C (dose: 50.0 mg/kg/injection, schedule: Q01DX009 (ip), vehicle: other): 93 % of control | T/C (dose: 100.0 mg/kg/injection, schedule: Q01DX009 (ip), vehicle: other): 103 % of control | T/C (dose: 200.0 mg/kg/injection, schedule: Q01DX009 (ip), vehicle: other): 103 % of control
